# According to patent publication EP0497921B1, “METHOD FOR INHIBITING ENZYMATIC SYNTHESIS OF NUCLEIC ACIDS USING ISOPSORALENS” (ISAACS, Stephen T., priority 1989, dated 1991):
# How the values were obtained:
# HIV 115-mer [1] = test: Effect of unirradiated isopsoralen on PCR amplification; type: biochemical; conditions: for Counts (CPM): unirradiated, 30 cycles, 42200 without AMDMIP
# Method: To systematically evaluate the effect of the presence of increasing concentrations of isopsoralen on PCR, AMDMIP (0, 100, 200, 400 µg/ml) was added to 10^7 copies of HIV 115-mer as template. PCR was then carried out for 30 cycles in the presence of α-^32P-dCTP. The PCR product was run on denaturing polyacrylamide gel and autoradiographed. The bands were thereafter cut and counted.
# HIV 115-mer [2] = test: Post-amplification sterilization: isopsoralen plus irradiation, reamplification of carryover; type: biochemical; conditions: for sterilization sensitivity (molecules of carryover sterilized): 115-mer PCR product; for amplification of carryover, not light-treated: no irradiation
# Text: For the purposes of this determination, the steps of the following experiment include (see Figure 40): a) preparing template, b) providing template, c) providing PCR reagents, d) providing polymerase, e) mixing PCR reagents, template, and polymerase to initiate PCR, f) cycling to provide PCR product, g) carrying over of PCR product into new tubes, h) providing isopsoralen, i) adding isopsoralen to the carryover, j) irradiating, k) addition of new PCR reagents, and l) subsequent PCR. Steps a), b) , c) , d), e), and f). PCR product was provided as described earlier. Step g) carrying over of PCR product. Aliquots of PCR product were added into new reaction tubes at 10^6 copies per tube. Step h) Providing Isopsoralen. AMDMIP was synthesized as described and diluted. Step i) Addition of Isopsoralen. AMDMIP (100 µg/ml, approximately 10^-4 M) was added reaction vessels containing carryover. Step j) Irradiation. Irradiation was performed on the PTI device to avoid photoproduct. Three of the new reaction tubes were irradiated while the others were left unirradiated as controls. Irradiation was for 15 minutes at RT as above. Step k) PCR Reagents and Taq Polymerase Were Added to Appropriate Concentrations. The final volume was increased two fold such that AMDMIP photoproducts were at 50 µg/ml. Step l) Subsequent PCR. Amplification was performed in closed reaction vessels using primer pair SK-38/39 for 20, 25 or 30 cycles, using the temperature profile for cycling described above in the presence of α-^32P-dCTP.
# For the purposes of this determination, the steps of the following experiment include (see Figure 42): a) preparing template, b) providing template, c) providing isopsoralen, d) providing PCR reagents, e) providing polymerase, f) mixing isopsoralen, PCR reagents, template, and polymerase to initiate PCR, g) cycling to provide PCR product, h) irradiating, i) carrying over of PCR product into new tubes at specific copy numbers, and j) amplifying in a subsequent PCR. Step a): Template preparation. HIV 115-mer was used as template. Step b) Providing Template. For the reaction, template (equivalent to approximately 10^7 copies) in buffer was provided for the reaction vessel. Step c) Providing Isopsoralen. AMDMIP (400 µg/ml) was provided as the isopsoralen. This is a higher concentration of AMDMIP than used in the previous example. Steps d), e), f) and g). PCR reagents and polymerase were provided, mixed and cycled as described above. This time, however, isopsoralen is part of the pre-amplification mixture. Step h) Irradiation. Irradiation was performed on the CE-III device for 15 minutes at 25°C. Step i) Carrying over of PCR product. Aliquots of PCR product were added into six new reaction tubes - two tubes for each dilution. Dilutions to yield 10^7, 10^5 and 10^3 copies were made. (Note that the dilutions were made from a concentration of approximately […]; thus, the dilutions produce a concentration of photoproduct that is far too low to consider photoproduct sterilization.) Step j) Subsequent PCR. New PCR reagents and polymerase were provided and mixed. Amplification was performed in closed reaction vessels using primer pair SK-38/39 for 30 cycles, using the temperature profile for cycling described above in the presence of α-^32P-dCTP.
# The two PCR targets used in these experiments were a 115-mer (SK-38/SK-39 HIV system) and a 500-mer. The 500-mer target is obtained from a PCR amplification of a lambda plasmid with primers PCR 01/02. This system is provided by Cetus/Perkin Elmer as a control in their commercial kits of PCR reagents (Catalogue No. N801-0055). For both of these systems equivalent copy numbers of each target were prepared in the following manner: An initial 30 cycle PCR reaction was carried out for each system with the appropriate primers and targets. Aliquots (approximately 10^5-10^6 target copies) of each of these reactions were transferred to a second set of PCR reactions. […]
# DNA = DNA base pair:isopsoralen ratio of 24.3 to 1; 13.1 µg/ml; cited from earlier work
# [3] = tested on: DNA polymerase I from E. coli. B; conditions: Piette and Hearst 1983; nick-translating a double-stranded template; cited from earlier work
# [4] = 100 µg/ml, CE-III 15 minutes, 30 cycles
# [5] = 400 µg/ml, CE-III 15 minutes, 30 cycles
Compound,concentrations compatible with the PCR system (HIV 115-mer [1]; HIV 115-mer system),Counts (CPM) (HIV 115-mer [1]; [AMDMIP] 100 µg/ml),Counts (CPM) (HIV 115-mer [1]; [AMDMIP] 200 µg/ml),Counts (CPM) (HIV 115-mer [1]; [AMDMIP] 400 µg/ml),sterilization of 115-mer PCR product compared with AMIP (HIV 115-mer [2]; [4]),sterilization sensitivity (molecules of carryover sterilized) (HIV 115-mer [2]; [5]),"sterilization of carryover (HIV 115-mer [2]; AMDMIP 100 µg/ml added after amplification, PTI 15 minutes, 10^6 copies, thirty cycles)","sterilization of carryover (HIV 115-mer [2]; AMDMIP 100 µg/ml added after amplification, PTI 15 minutes, 10^6 copies, twenty cycles)","sterilization of carryover (HIV 115-mer [2]; AMDMIP 100 µg/ml added after amplification, PTI 15 minutes, 10^6 copies, twenty-five cycles, reduced relative to controls)","amplification of carryover, not light-treated (HIV 115-mer [2]; AMDMIP 100 µg/ml, 20, 25, 30 cycles)","sterilization of carryover (HIV 115-mer [2]; AMDMIP 400 µg/ml present during amplification, CE-III 15 minutes at 25°C, 10^7, 10^5, 10^3 copies, 30 cycles)","amplification of carryover, not light-treated (HIV 115-mer [2]; AMDMIP 400 µg/ml present during first amplification, 30 cycles)",target molecules left capable of being replicated by PCR (HIV 115-mer [2]; inferred from 20 cycles with 100 CPM threshold and Table 6),target molecules that retained replicating capabilities (HIV 115-mer [2]; inferred from 25 cycles and Table 6),1 photobound AMDMIP per n DNA base pairs (DNA),sterilization sensitivity (molecules of carryover sterilized) (HIV 115-mer [2]; [4]),inhibition of E. Coli polymerase I by covalently bound monoadducts [3]
"4'-Aminomethyl-4,5'-dimethylisopsoralen [AMDMIP]",up to 400 µg/ml,77200 CPM,77500 CPM,69400 CPM,better sterilization agent,≥ 6 x 10^9 carryover molecules,no significant sterilization is observed,sterilization appears to be complete,PCR product is visible,show amplification,"complete, post-amplification sterilization",show amplification,less than 10^4 target molecules,at least 10^3 target molecules,151 DNA base pairs,,
5-Aminomethylisopsoralen [AMIP],,,,,,about 10^6 carryover molecules,,,,,,,,,,"about 10,000 molecules of carryover",
"Cc1cc2occc2c2oc(=O)ccc12 [MIP, 5-Methylisopsoralen]",,,,,,,,,,,,,,,,,not inhibited
